Laboratory results as given in publication PMC6952396, “Structural basis for itraconazole-mediated NPC1 inhibition” (Nature Communications, 2020).
“And” between values parts separate entries of the source, which are not always exact repeats. Equal values may be shown once.

Biological target: T1, NPC1 (Cricetulus griseus, UniProt Q9JLG3)
T1 construct: CHO-7 cells in the medium are deprived of cholesterol to induce the LDL receptors biosynthesis; endogenous in cells; host or cells: CHO-7 cells
T1 sequence (Q9JLG3 23-1277): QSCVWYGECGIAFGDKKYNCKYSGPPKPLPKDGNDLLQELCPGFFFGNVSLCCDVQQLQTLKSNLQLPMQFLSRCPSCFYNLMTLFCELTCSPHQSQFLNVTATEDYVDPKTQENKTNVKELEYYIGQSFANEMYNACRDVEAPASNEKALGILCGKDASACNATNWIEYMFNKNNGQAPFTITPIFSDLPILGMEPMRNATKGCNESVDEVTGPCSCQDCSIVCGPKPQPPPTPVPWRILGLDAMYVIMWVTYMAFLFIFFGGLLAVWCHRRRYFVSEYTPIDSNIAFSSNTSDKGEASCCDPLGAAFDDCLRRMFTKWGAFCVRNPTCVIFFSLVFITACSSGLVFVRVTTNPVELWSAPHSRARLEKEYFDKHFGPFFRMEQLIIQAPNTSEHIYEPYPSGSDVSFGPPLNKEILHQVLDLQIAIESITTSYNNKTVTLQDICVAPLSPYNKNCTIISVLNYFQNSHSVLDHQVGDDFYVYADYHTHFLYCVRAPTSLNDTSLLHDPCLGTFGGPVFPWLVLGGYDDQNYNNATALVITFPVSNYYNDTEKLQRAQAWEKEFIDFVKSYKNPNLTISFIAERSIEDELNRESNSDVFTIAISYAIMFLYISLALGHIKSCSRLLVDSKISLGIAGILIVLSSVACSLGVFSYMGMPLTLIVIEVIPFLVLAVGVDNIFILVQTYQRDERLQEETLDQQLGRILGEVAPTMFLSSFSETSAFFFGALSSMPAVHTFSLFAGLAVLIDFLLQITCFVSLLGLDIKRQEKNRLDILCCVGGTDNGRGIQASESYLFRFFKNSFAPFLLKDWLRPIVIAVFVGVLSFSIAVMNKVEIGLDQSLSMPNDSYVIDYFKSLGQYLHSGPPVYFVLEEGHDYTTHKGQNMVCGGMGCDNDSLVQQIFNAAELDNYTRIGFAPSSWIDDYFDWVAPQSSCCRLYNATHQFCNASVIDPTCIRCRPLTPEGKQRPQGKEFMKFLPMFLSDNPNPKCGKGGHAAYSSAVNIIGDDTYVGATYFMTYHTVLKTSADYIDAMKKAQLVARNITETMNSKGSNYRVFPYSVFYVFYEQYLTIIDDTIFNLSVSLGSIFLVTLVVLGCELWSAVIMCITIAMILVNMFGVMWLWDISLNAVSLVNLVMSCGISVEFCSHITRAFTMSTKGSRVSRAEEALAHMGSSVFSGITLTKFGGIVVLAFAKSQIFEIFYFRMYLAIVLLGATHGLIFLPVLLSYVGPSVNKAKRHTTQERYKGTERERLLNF
Test: Cholesterol re-esterification (ACAT) assay measuring NPC1-mediated export of cholesterol from lysosomes in CHO-7 cells
Assay type: cell-based
Conditions: for cholesteryl [14C] oleate formed, Repeat 1 / cholesteryl [14C] oleate formed, Repeat 2: Fig. 2 source data; for cholesteryl [14C] oleate formed, Repeat 3 / cholesteryl [14C] oleate formed, Repeat 4: Supplementary Fig. 3 source data; for IC50: IC50 (concentration at which each compound inhibited cholesterol esterification by 50%), 10% FCS, 4 h then 2 h [14C] oleate pulse
Text: Itraconazole has three chiral centers (Supplementary Fig. 2a). The pharmaceutical form contains four cis-stereoisomers in a 1:1:1:1 molar ratio (Supplementary Fig. 2a–d). To determine the activity of the cis-stereoisomers, the individual isomers were isolated and identified based on their optical rotation in chloroform following a previous report (Supplementary Fig. 2e)[26]. Then, they were separately tested in a cholesterol re-esterification assay used to measure NPC1-mediated export of cholesterol from lysosomes. Briefly, CHO-7 cells in the medium are deprived of cholesterol to induce the LDL receptors biosynthesis. The cells are then incubated with fetal calf serum (FCS) that contains LDL. The LDL-derived cholesterol will now be transported by functional NPC1 protein from the lysosome to the endoplasmic reticulum (ER). The acyl-CoA:cholesterol actyltransferase named ACAT can now re-esterify the cholesterol in the ER. Therefore, the cells were pulse-labeled with [^14C] oleate and we can measure the synthesis of cholesteroyl [^14C] oleate to evaluate the activity of NPC1 protein. Using this assay, we tested the ability of various itraconazole to inhibit NPC1 activity.
Fig. 2 ACAT activity of itraconazole and ketoconazole in CHO-7 cells. On day 0, CHO-7 cells were set up in medium A with 5% LPDS at 2.5 × 10^5 cells/well in 6-well dish. On day 2, cells were switched to medium A with 5% LPDS containing 50 µM sodium compactin and 50 µM sodium mevalonate. On day 3 the cells received fresh medium B containing compactin and mevalonate with various concentration compounds in the presence of 10% FCS containing lipoproteins. After incubation for 4 h at 37 °C, each cell monolayer was pulse-labeled for 2 h with 0.1 mM sodium [^14C] oleate (5792 dpm/nmol). The cells were then harvested for measurement of their content of cholesteryl [^14C] oleate and [^14C] triglycerides, as described in Methods. […] Itraconazole mixture, isomer A (Supplementary Fig. 2a), isomer B (Supplementary Fig. 2b) and isomer C (Supplementary Fig. 2c) were added at final concentrations of 0.3 μM. The isomer D (Supplementary Fig. 2d), I-Br and ketoconazole were added at final concentrations of 1 μM. The biological repeats are shown as individual values. Source data are provided as a Source Data file.
On day 0, cells were set up in medium A with 5% LPDS at 2.5 × 10^5 cells/well in six-well dish. On day 2, cells were switched to medium A with 5% LPDS containing 50 µM sodium compactin and 50 µM sodium mevalonate. On day 3 the cells received fresh medium B containing compactin and mevalonate with indicated concentration triazole compounds in the presence of 10% FCS containing lipoproteins. After incubation for 4 h at 37 °C, each cell monolayer was pulse-labeled for 2 h with 0.1 mM sodium [^14C] oleate (5792 dpm/nmol). The cells were then harvested for measurement of their content of cholesteryl [^14C] oleate and [^14C] triglycerides.
The rate of incorporation of [^14C] oleate into cholesteryl [^14C] oleate and [^14C] triglycerides by monolayers of NPC1^−/− cells and CHO-7 cells was measured as described previously. In brief, cells were switched to medium containing LPDS supplemented with compactin and mevolonate at 16 h before the experiments. On the day of the experiment, cells were incubated for 4 h with fresh medium containing FCS as a source of cholesterol-containing lipoproteins. Cells were then pulse –labeled for 2 h with 0.1 mM sodium [^14C] oleate. Cells were then washed, and the lipids were extracted in hexane:isopropanol (3:2, vol:vol), separated on a silica gel G thin-layer chromatogram (developed in heptane:ethylether:acetic acid, 90:30:1), and quantified by scintillation counting with the use of an internal standard for recovery.

SMILES	cholesteryl [14C] oleate formed, Repeat 1 (0.06 uM compound)	cholesteryl [14C] oleate formed, Repeat 2 (0.06 uM compound)	cholesteryl [14C] oleate formed, Repeat 1 (0.1 uM compound)	cholesteryl [14C] oleate formed, Repeat 2 (0.1 uM compound)	cholesteryl [14C] oleate formed, Repeat 3 (0.1 uM compound)	cholesteryl [14C] oleate formed, Repeat 4 (0.1 uM compound)	cholesteryl [14C] oleate formed, Repeat 1 (0.3 uM compound)	cholesteryl [14C] oleate formed, Repeat 2 (0.3 uM compound)	cholesteryl [14C] oleate formed, Repeat 3 (0.3 uM compound)	cholesteryl [14C] oleate formed, Repeat 4 (0.3 uM compound)	cholesteryl [14C] oleate formed, Repeat 1 (1 uM compound)	cholesteryl [14C] oleate formed, Repeat 2 (1 uM compound)	cholesteryl [14C] oleate formed, Repeat 3 (1 uM compound)	cholesteryl [14C] oleate formed, Repeat 4 (1 uM compound)	IC50	further results
CC(=O)N1CCN(c2ccc(OCC3COC(Cn4ccnc4)(c4ccc(Cl)cc4Cl)O3)cc2)CC1 (centres unmarked) [Ketoconazole, ketoconazole]	5.105 nanomoles formed per hour per milligram cell protein	4.499 nanomoles formed per hour per milligram cell protein	5.133 nanomoles formed per hour per milligram cell protein	5.266 nanomoles formed per hour per milligram cell protein	5.665 nanomoles formed per hour per milligram cell protein	5.29 nanomoles formed per hour per milligram cell protein	4.872 nanomoles formed per hour per milligram cell protein	4.637 nanomoles formed per hour per milligram cell protein	4.5308 nanomoles formed per hour per milligram cell protein	5.341 nanomoles formed per hour per milligram cell protein	4.011 nanomoles formed per hour per milligram cell protein	4.3222 nanomoles formed per hour per milligram cell protein	3.625 nanomoles formed per hour per milligram cell protein	4.546 nanomoles formed per hour per milligram cell protein	> 1000 nM	inhibition of NPC1-mediated cholesterol transport (result in words): did not inhibit
CCC(C)n1ncn(-c2ccc(N3CCN(c4ccc(OCC5COC(Cn6cncn6)(c6ccc(Cl)cc6Cl)O5)cc4)CC3)c(Br)c2)c1=O (centres unmarked) [I-Br]	4.324 nanomoles formed per hour per milligram cell protein	4.164 nanomoles formed per hour per milligram cell protein	3.9836 nanomoles formed per hour per milligram cell protein	4.202 nanomoles formed per hour per milligram cell protein	4.772 nanomoles formed per hour per milligram cell protein	3.292 nanomoles formed per hour per milligram cell protein	1.539 nanomoles formed per hour per milligram cell protein	1.1254 nanomoles formed per hour per milligram cell protein	1.245 nanomoles formed per hour per milligram cell protein	1.037 nanomoles formed per hour per milligram cell protein	0.2467 nanomoles formed per hour per milligram cell protein	0.5544 nanomoles formed per hour per milligram cell protein	0.5005 nanomoles formed per hour per milligram cell protein	0.5131 nanomoles formed per hour per milligram cell protein	200 nM and ~200 nM	cholesteryl [14C] oleate formed, Repeat 1 (0.01 uM compound): 4.59 nanomoles formed per hour per milligram cell protein; cholesteryl [14C] oleate formed, Repeat 2 (0.01 uM compound): 4.968 nanomoles formed per hour per milligram cell protein; cholesteryl [14C] oleate formed, Repeat 3 (0.01 uM compound): 4.668 nanomoles formed per hour per milligram cell protein; cholesteryl [14C] oleate formed, Repeat 4 (0.01 uM compound): 4.998 nanomoles formed per hour per milligram cell protein; cholesteryl [14C] oleate formed, Repeat 1 (0.03 uM compound): 5.377 nanomoles formed per hour per milligram cell protein; cholesteryl [14C] oleate formed, Repeat 2 (0.03 uM compound): 4.886 nanomoles formed per hour per milligram cell protein; cholesteryl [14C] oleate formed, Repeat 3 (0.03 uM compound): 4.708 nanomoles formed per hour per milligram cell protein; cholesteryl [14C] oleate formed, Repeat 4 (0.03 uM compound): 4.077 nanomoles formed per hour per milligram cell protein; cholesteryl [14C] oleate formed, Repeat 3 (0.06 uM compound): 4.605 nanomoles formed per hour per milligram cell protein; cholesteryl [14C] oleate formed, Repeat 4 (0.06 uM compound): 3.966 nanomoles formed per hour per milligram cell protein
